Experimental data as given in ChEMBL document CHEMBL2029278 (Bioorg Med Chem Lett, 2012).
pIC50: −log10 of the molar value. Active and inactive are the calls of the source. No cut-off for these calls is given here.

Key:
Influenza A virus = experiment: Antiviral activity against Influenza A virus PR/8/34 H1N1 infected in dog MDCK cells assessed as reduction in virus-induced cytopathic effect at 5 ug/mL; assay type: functional, organism-based; conditions: A/Puerto Rico/8/1934(H1N1)
Neuraminidase [1] = target: T1, Neuraminidase (Influenza A virus, UniProt B4URF0); experiment: Inhibition of Influenza A virus H9N2 neuraminidase using 4-MU-NANA as substrate by fluorescence assay
T1 sequence (B4URF0 whole entry): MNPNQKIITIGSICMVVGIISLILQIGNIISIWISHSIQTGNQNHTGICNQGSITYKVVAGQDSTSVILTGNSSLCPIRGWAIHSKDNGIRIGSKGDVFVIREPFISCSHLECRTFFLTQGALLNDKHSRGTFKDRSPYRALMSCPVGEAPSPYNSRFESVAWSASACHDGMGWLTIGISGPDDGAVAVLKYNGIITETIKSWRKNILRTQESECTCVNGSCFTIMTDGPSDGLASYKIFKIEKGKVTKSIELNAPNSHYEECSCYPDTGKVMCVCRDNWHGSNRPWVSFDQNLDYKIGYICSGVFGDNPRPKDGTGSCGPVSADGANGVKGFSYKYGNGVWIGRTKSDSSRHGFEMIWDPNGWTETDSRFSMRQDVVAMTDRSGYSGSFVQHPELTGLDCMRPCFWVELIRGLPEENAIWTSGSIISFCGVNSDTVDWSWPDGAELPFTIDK

Neuraminidase [2] = target: T1, Neuraminidase; experiment: Inhibition of Influenza A virus H1N1 neuraminidase using 4-MU-NANA as substrate by fluorescence assay
Neuraminidase [3] = target: T1, Neuraminidase; experiment: Inhibition of wild type H1N1 swine influenza virus neuraminidase using 4-MU-NANA as substrate by fluorescence assay

O=c1c2ccccc2oc2cc(O)cc(O)c12
Activity (Influenza A virus): Active
pIC50 (Neuraminidase [1]): 4.17
pIC50 (Neuraminidase [2]): 3.99
pIC50 (Neuraminidase [3]): 4.31

COc1ccc(O)c2c(=O)c3cc(O)ccc3oc12
Activity (Influenza A virus): Active
pIC50 (Neuraminidase [1]): 4.00
pIC50 (Neuraminidase [2]): 3.96
pIC50 (Neuraminidase [3]): 4.44

O=c1c2cccc(O)c2oc2cc(O)c(O)c(O)c12
Activity (Influenza A virus): Active
pIC50 (Neuraminidase [1]): 4.12
pIC50 (Neuraminidase [2]): 3.99
pIC50 (Neuraminidase [3]): 4.28

COc1cc(O)c2oc3ccccc3c(=O)c2c1OC
pIC50 (Neuraminidase [1]): < 3.43
pIC50 (Neuraminidase [2]): < 3.43

COc1c2c(cc3c(=O)c4ccccc4oc13)OCO2
pIC50 (Neuraminidase [1]): < 3.43
pIC50 (Neuraminidase [2]): < 3.43

COc1c(O)cc2c(=O)c3ccccc3oc2c1OC
pIC50 (Neuraminidase [1]): < 3.43
pIC50 (Neuraminidase [2]): < 3.43

O=c1c2cc(O)ccc2oc2cc(O)cc(O)c12
Activity (Influenza A virus): Active
pIC50 (Neuraminidase [1]): 3.99
pIC50 (Neuraminidase [2]): 3.96
pIC50 (Neuraminidase [3]): 4.26

COc1c(O)cc2oc3cc(O)ccc3c(=O)c2c1OC
pIC50 (Neuraminidase [1]): < 3.46
pIC50 (Neuraminidase [2]): < 3.46

COc1cccc2oc3ccc(O)cc3c(=O)c12
pIC50 (Neuraminidase [1]): < 3.38
pIC50 (Neuraminidase [2]): < 3.38

O=c1c2cc(O)ccc2oc2cccc(O)c12
Activity (Influenza A virus): Active
pIC50 (Neuraminidase [1]): 4.01
pIC50 (Neuraminidase [2]): 3.99
pIC50 (Neuraminidase [3]): 4.30
